The values below come from patent EP0816362A1, “THIAZOLE DERIVATIVES” (TAISHO PHARMACEUTICAL CO. LTD, priority 1995, dated 1996).

The first assay has as its target T1, human D4.2 receptor (Homo sapiens, UniProt P21917, DEL265-296).
T1 sequence (P21917 with tags, fused parts or gaps DEL265-296): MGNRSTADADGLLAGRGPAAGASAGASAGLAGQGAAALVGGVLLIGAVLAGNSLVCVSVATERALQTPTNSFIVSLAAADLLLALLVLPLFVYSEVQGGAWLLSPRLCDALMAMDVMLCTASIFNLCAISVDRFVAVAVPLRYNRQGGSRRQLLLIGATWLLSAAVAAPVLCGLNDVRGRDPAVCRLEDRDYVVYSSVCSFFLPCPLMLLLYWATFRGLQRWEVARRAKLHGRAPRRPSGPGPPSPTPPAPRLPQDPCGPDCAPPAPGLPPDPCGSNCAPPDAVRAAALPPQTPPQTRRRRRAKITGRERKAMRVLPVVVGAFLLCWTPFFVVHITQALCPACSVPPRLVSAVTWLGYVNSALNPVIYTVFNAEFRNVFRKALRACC
In words: Dopamine D4 receptor binding experiment ([3H]-spiperone). The settings on record: CHO cell membranes expressing human D4.2 receptor, [3H]-spiperone (0.5 nM), 27°C, 2 hours. The protocol:
As a receptor preparation, Chinese hamster ovary (CHO) cell membranes where human D4.2 receptor was expressed were used.
As [^3H]-labeled ligand, [^3H]-spiperone was used.
Human D4.2 receptor binding test: CHO cell membranes where human D4.2 receptor was expressed, [^3H]-spiperone (0.5 nM) and a test drug were reacted at 27°C for 2 hours in 50 mM Tris-HCl buffer, pH 7.4 containing 5 mM EDTA, 1.5 mM calcium chloride, 5 mM potassium chloride and 120 mM sodium chloride.
After the reaction, the sample was filtered under suction through a glass filter (GF/B), and the radioactivity of the filter paper was determined in a liquid scintillation spectrometer.
The binding of [^3H]-spiperone in the presence of 10 µM haloperidol was assumed to be non-specific binding, and the difference between the total binding and the non-specific binding was assumed to be specific binding.
For the molecule `Cc1nc(-c2ccc(F)cc2)c(C2CCN(CCCC(=O)c3ccc(F)cc3)C2)s1` (racemic) [Compound D-15], the concentration for half-maximal inhibition (IC50) amounted to 4.13 nM.
In the case of `Cc1nc(-c2ccc(Cl)cc2)c(CCN2CCC(C(=O)c3ccc(F)cc3)CC2)s1` [Compound K-26], the 50% inhibitory concentration (IC50) turned out to be 4.53 nM.
Still for that read-out and setting: the result for `C=C(c1ccc(F)cc1)C1CCN(CCc2sc(N)nc2-c2ccc(F)cc2)CC1` [Compound K-18] reads 20.1 nM; that for `Nc1nc(-c2ccc(F)cc2)c(C2CCN(CCCC(c3ccc(F)cc3)c3ccc(F)cc3)C2)s1` (racemic) [Compound B-19], 55.9 nM; that for `COc1ccc(-c2nc(C)sc2CCN2CCC(C(=O)c3ccc(F)cc3)CC2)cc1` [Compound K-28], 1.63 nM.
`Nc1nc(-c2ccc(F)cc2)c(C2CCN(CCCN3C(=O)Cc4cc(F)ccc43)C2)s1` (stereo not shown) [Compound H-08]: the IC50 was 46.4 nM.
Take `Cc1ccc(C(=O)C2CCN(CCc3sc(C)nc3-c3ccc(F)cc3)CC2)cc1` [Compound K-25]: the IC50 worked out at 5.46 nM.
In the case of `Cc1nc(-c2ccc(F)cc2)c(CCN2CCC(C(=O)c3ccc(Cl)cc3)CC2)s1` [Compound K-20], the half-maximal inhibitory concentration (IC50) was determined as 5.46 nM.
`Nc1nc(-c2ccc(F)cc2)c(C2CCN(CCCC(=O)c3ccccc3)C2)s1` (racemic) [Compound D-06] showed an IC50 of 38.5 nM.
The molecule `Nc1nc(-c2ccc(F)cc2)c(C2CCN(CCCn3c(=O)ccc4cc(F)ccc43)C2)s1` (stereo not shown) [Compound H-03] showed a 50% inhibitory concentration (IC50) of 61.4 nM.
With `Cc1ccc(C(=O)C2CCN(CCc3sc(N)nc3-c3ccc(F)cc3)CC2)cc1` [Compound K-16], the concentration for half-maximal inhibition (IC50) stood at 9.55 nM.
For the molecule `Cc1nc(-c2ccc(F)cc2)c(CCN2CCC(C(=O)c3ccc(Br)cc3)CC2)s1` [Compound K-21], the concentration for half-maximal inhibition (IC50) was 11.5 nM.
`Nc1nc(-c2ccc(F)cc2)c(C2CCN(CCC=Cc3ccc(F)cc3)C2)s1` (stereo not shown) [Compound C-02] showed a 50% inhibitory concentration (IC50) of 81.1 nM.
Molecule `Nc1nc(-c2ccc(F)cc2)c(C2CCN(CCCN3C(=O)Cc4ccccc43)C2)s1` (stereo not shown) [Compound H-07] registered an IC50 of 89 nM.
Regarding `Cc1nc(-c2ccc(Br)cc2)c(CCN2CCC(C(=O)c3ccc(F)cc3)CC2)s1` [Compound K-27], the concentration for half-maximal inhibition (IC50) stood at 4.98 nM.
As for `Nc1nc(-c2ccc(F)cc2)c(CCN2CCC(C(=O)c3ccc(Br)cc3)CC2)s1` [Compound K-15], the concentration for half-maximal inhibition (IC50) worked out at 35.1 nM.
The molecule `Nc1nc(-c2ccc(F)cc2)c(C2CCN(CCCc3noc4cc(F)ccc34)C2)s1` (stereo not shown) [Compound E-02, 2-amino-4-(4-fluorophenyl)-5-[1-[3-(6-fluoro-1,2-benzisoxazol-3-yl)propyl]pyrrolidin-3-yl]thiazole] returned a 50% inhibitory concentration (IC50) of 10.5 nM.
Still for that read-out and setting: the result for `Nc1nc(-c2ccc(F)cc2)c(C2CCN(CCCCc3noc4cc(F)ccc34)C2)s1` (stereo not shown) [Compound E-06] reads 97.7 nM.
As to `Nc1nc(-c2ccc(F)cc2)c(CCN2CCC(Cc3ccccc3)CC2)s1` [Compound K-04], the IC50 came out at 46.4 nM.
In turn, `Nc1nc(-c2ccc(F)cc2)c(C2CCN(CCCN3C(=O)CCc4cc(F)ccc43)C2)s1` (stereo not shown) [Compound H-04] came in with a half-maximal inhibitory concentration (IC50) of 46.4 nM.
The molecule `COc1ccc(C(=O)C2CCN(CCc3sc(C)nc3-c3ccc(F)cc3)CC2)cc1` [Compound K-22] had an IC50 of 38.5 nM.
Regarding `Nc1nc(-c2ccc(F)cc2)c(C2CCN(CCCC(=O)c3ccc(F)cc3)C2)s1` [Compound D-02, 2-amino-4-(4-fluorophenyl)-5-[1-[4-(4-fluorophenyl)-4-oxobutyl]pyrrolidin-3-yl]thiazole], the concentration for half-maximal inhibition (IC50) amounted to 6.58 nM.
Molecule `Cc1nc(-c2ccc(F)cc2)c(CCN2CCC(C(=O)c3ccc(F)cc3)CC2)s1` [Compound K-19] registered an IC50 of 8.7 nM.
Molecule `Nc1nc(-c2ccc(F)cc2)c(C2CCN(CCCc3noc4cc(F)ccc34)C2)s1` (single isomer, unassigned) [Compound F-07] registered an IC50 of 11.8 nM.
Molecule `Nc1nc(-c2ccc(F)cc2)c(C2CCN(CCC=C(c3ccc(F)cc3)c3ccc(F)cc3)C2)s1` (racemic) [Compound C-03] returned an IC50 of 29.2 nM.
The same measure, in the same setting: the result for `Nc1nc(-c2ccccc2)c(CCN2CCC(C(=O)c3ccc(F)cc3)CC2)s1` [Compound K-10] reads 8.7 nM.
Same read-out and setting: the result for `Nc1nc(-c2ccc(F)cc2)c(CCN2CCC(C(=O)c3ccccc3)CC2)s1` [Compound K-09] reads 42.3 nM; that for `Nc1nc(-c2ccc(F)cc2)c(CCN2CCC(C(=O)c3ccc(Cl)cc3)CC2)s1` [Compound K-08], 29.2 nM.
Still for that read-out and setting: the result for `Cc1nc(-c2ccc(F)cc2)c(CCN2CCC(C(=O)c3ccccc3)CC2)s1` [Compound K-24] reads 5.99 nM.
Consider `Nc1nc(-c2ccc(F)cc2)c(CCN2CCC(C(=O)c3ccc(F)cc3)CC2)s1` [Compound K-01, 2-amino-4-(4-fluorophenyl)-5-[2-[4-(4-fluorobenzoyl)piperidin-1-yl]ethyl]thiazole], for which the half-maximal inhibitory concentration (IC50) is 7.92 nM.
Regarding `Cc1ccc(-c2nc(C)sc2CCN2CCC(C(=O)c3ccc(F)cc3)CC2)cc1` [Compound K-29], the 50% inhibitory concentration (IC50) came to 2.36 nM.
`Nc1nc(-c2ccc(F)cc2)c(C2CCN(CCCN3C(=O)CCc4ccccc43)C2)s1` (stereo not shown) [Compound H-02] registered an IC50 of 81.1 nM.

Staying with this assay, now noted: inhibition of [3H]-spiperone binding, human D4.2 receptor.
`Cc1nc(-c2ccc(F)cc2)c(CCN2CCC(=Cc3ccccc3)CC2)s1` [Compound L-30]: the IC50 worked out at 2.6 nM.
As to `O=C(c1ccccc1)C1CCN(CCc2scnc2-c2ccc(F)cc2)CC1` [Compound K-34], the IC50 turned out to be 20.1 nM.
For the molecule `Nc1nc(-c2ccc(F)cc2)c(CCN2CCC(=Cc3ccc(Cl)cc3)CC2)s1` [Compound L-08], the IC50 turned out to be 73.9 nM.
In turn, `COc1ccc(-c2nc(C)sc2CCN2CCC(=Cc3ccc(F)cc3)CC2)cc1` [Compound L-20] displayed an IC50 of 7.22 nM.
For `Cc1nc(-c2ccc(F)cc2)c(CCN2CCC(=Cc3ccccc3F)CC2)s1` [Compound L-28], the IC50 was determined as 5.99 nM.
On the same count and under the same terms, the result for `Cc1ccc(-c2nc(C)sc2CCN2CCC(=Cc3ccc(F)cc3)CC2)cc1` [Compound L-21] reads 2.6 nM.
Molecule `Cc1nc(-c2ccccc2)c(CCN2CCC(=Cc3ccc(F)cc3)CC2)s1` [Compound L-23] yielded a 50% inhibitory concentration (IC50) of 3.13 nM.
As for `C=C(c1ccc(F)cc1)C1CCN(CCc2sc(C)nc2-c2ccc(F)cc2)CC1` [Compound K-32], the 50% inhibitory concentration (IC50) turned out to be 12.6 nM.
In the case of `CC(=C1CCN(CCc2sc(C)nc2-c2ccc(F)cc2)CC1)c1ccc(F)cc1` [Compound L-31], the concentration for half-maximal inhibition (IC50) came out at 16.7 nM.
The molecule `Nc1nc(-c2ccc(F)cc2)c(CCN2CCC(=Cc3ccc(F)cc3)CC2)s1` [Compound L-01] had a half-inhibitory concentration (IC50) of 2.85 nM.
In turn, `Cc1ccc(-c2nc(N)sc2CCN2CCC(=Cc3ccc(F)cc3)CC2)cc1` [Compound L-06] had an IC50 of 4.13 nM.
Same read-out and setting: the result for `Cc1nc(-c2ccc(F)cc2)c(CCN2CCC(=Cc3cccc(C(F)(F)F)c3)CC2)s1` [Compound L-29] reads 10.5 nM.
In turn, `COc1ccc(C=C2CCN(CCc3sc(C)nc3-c3ccc(F)cc3)CC2)cc1` [Compound L-26] came in with an IC50 of 16.7 nM.
In turn, `Nc1nc(-c2ccc(Cl)cc2)c(CCN2CCC(=Cc3ccc(F)cc3)CC2)s1` [Compound L-03] yielded an IC50 of 22.1 nM.
Still for that read-out and setting: the result for `O=C(c1ccc(F)cc1)C1CCN(CCc2sc(-c3ccccc3)nc2-c2ccc(F)cc2)CC1` [Compound K-35] reads 32 nM.
`Cc1nc(-c2ccc(F)cc2)c(CCN2CCC(=Cc3cccc(F)c3)CC2)s1` [Compound L-27] showed an IC50 of 1.96 nM.
For the molecule `Nc1nc(-c2ccc(F)cc2)c(CCN2CCC(=Cc3ccccc3)CC2)s1` [Compound L-14], the 50% inhibitory concentration (IC50) was found to be 3.76 nM.
The molecule `COc1ccc(-c2nc(N)sc2CCN2CCC(=Cc3ccc(F)cc3)CC2)cc1` [Compound L-05] returned an IC50 of 18.3 nM.
Still for that read-out and setting: the result for `O=C(c1ccc(F)cc1)C1CCN(CCc2scnc2-c2ccc(F)cc2)CC1` [Compound K-33] reads 2.36 nM; that for `Nc1nc(-c2ccccc2)c(CCN2CCC(=Cc3ccc(F)cc3)CC2)s1` [Compound L-07], 22.1 nM.
Molecule `Cc1nc(-c2ccc(F)cc2)c(CCN2CCC(=Cc3ccc(Cl)cc3)CC2)s1` [Compound L-24] showed a concentration for half-maximal inhibition (IC50) of 11.5 nM.
`Nc1nc(-c2ccc(F)cc2)c(CCN2CCC(CC(=O)c3ccc(F)cc3)C2)s1` (stereo not shown) [Compound K-37] had a concentration for half-maximal inhibition (IC50) of 10.5 nM.
`Fc1ccc(C=C2CCN(CCc3scnc3-c3ccc(F)cc3)CC2)cc1` [Compound L-32]: the IC50 was 6.58 nM.
The molecule `Nc1nc(-c2ccc(F)cc2)c(CCN2CCC(=Cc3cccc(C(F)(F)F)c3)CC2)s1` [Compound L-13] gave an IC50 of 24.2 nM.
Molecule `Nc1nc(-c2ccc(F)cc2)c(CCCN2CCC(=Cc3ccc(F)cc3)CC2)s1` [Compound L-02] came in with an IC50 of 38.5 nM.
For `Cc1nc(-c2ccc(Br)cc2)c(CCN2CCC(=Cc3ccc(F)cc3)CC2)s1` [Compound L-19], the 50% inhibitory concentration (IC50) came out at 16.7 nM.
`Nc1nc(-c2ccc(F)cc2)c(CCN2CCC(=Cc3ccccc3F)CC2)s1` [Compound L-12]: the IC50 turned out to be 2.36 nM.
On to `COc1ccc(-c2nc(C)sc2CCN2CCC(C(=O)c3ccc(F)cc3)CC2)cc1Br` [Compound K-31], for which the IC50 is 0.705 nM.
The molecule `Nc1nc(-c2ccc(Br)cc2)c(CCN2CCC(=Cc3ccc(F)cc3)CC2)s1` [Compound L-04] gave an IC50 of 13.9 nM.

For orientation: IC50 means the point on the concentration scale where inhibition reaches its midpoint. A high value points to a need for much substance.
